From ChEMBL document CHEMBL3400053, “trans-3,4-Disubstituted pyrrolidines as inhibitors of the human aspartyl protease renin. Part II: prime site exploration using an oxygen linker” (Bioorg Med Chem Lett, 2015)

Key:
[1] = target: T1, Alpha-2B adrenergic receptor (Homo sapiens, UniProt P18089); assay: Inhibition of alpha-adrenoceptor 2B (unknown origin)
T1 sequence (P18089 whole entry): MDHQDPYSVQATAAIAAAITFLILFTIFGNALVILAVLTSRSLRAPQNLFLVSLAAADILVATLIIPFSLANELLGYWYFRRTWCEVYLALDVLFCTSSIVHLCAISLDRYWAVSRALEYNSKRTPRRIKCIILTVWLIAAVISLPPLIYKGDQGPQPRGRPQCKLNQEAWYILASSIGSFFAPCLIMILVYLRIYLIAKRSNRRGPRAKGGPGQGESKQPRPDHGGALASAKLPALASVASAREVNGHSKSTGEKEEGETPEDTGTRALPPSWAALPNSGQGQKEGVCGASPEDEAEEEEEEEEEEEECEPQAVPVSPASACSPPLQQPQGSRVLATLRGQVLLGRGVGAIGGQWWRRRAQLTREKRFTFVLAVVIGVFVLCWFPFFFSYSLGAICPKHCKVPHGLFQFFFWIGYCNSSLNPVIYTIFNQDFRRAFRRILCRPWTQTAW

[2] = target: Phosphodiesterase 3 (Homo sapiens, UniProt Q14432+Q13370); assay: Inhibition of PDE3 (unknown origin); assay type: protein assay
[3] = target: Cytochrome P450 3A4 (Homo sapiens, UniProt P08684); assay: Inhibition of CYP3A4 (unknown origin) using 7-benzyl-4-trifluoromethylcoumarin as fluorometric substrate; assay type: ADME
Cytochrome P450 3A4, sequence (P08684 whole entry): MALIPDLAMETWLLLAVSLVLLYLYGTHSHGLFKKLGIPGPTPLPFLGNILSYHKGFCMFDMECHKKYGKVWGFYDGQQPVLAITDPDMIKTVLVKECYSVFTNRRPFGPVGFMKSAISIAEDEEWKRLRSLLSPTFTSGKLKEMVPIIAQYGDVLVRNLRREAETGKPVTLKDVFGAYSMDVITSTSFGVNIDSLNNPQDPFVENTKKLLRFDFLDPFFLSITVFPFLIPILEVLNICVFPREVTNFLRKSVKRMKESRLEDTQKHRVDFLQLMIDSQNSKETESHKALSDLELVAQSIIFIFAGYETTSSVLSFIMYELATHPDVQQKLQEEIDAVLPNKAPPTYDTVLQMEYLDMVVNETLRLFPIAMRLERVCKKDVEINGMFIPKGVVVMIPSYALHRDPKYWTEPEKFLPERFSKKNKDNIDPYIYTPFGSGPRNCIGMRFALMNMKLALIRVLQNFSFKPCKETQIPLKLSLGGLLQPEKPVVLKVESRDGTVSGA

[4] = target: T2, Alpha-2A adrenergic receptor (Homo sapiens, UniProt P08913); assay: Inhibition of alpha-adrenoceptor 2A (unknown origin)
T2 sequence (P08913 whole entry): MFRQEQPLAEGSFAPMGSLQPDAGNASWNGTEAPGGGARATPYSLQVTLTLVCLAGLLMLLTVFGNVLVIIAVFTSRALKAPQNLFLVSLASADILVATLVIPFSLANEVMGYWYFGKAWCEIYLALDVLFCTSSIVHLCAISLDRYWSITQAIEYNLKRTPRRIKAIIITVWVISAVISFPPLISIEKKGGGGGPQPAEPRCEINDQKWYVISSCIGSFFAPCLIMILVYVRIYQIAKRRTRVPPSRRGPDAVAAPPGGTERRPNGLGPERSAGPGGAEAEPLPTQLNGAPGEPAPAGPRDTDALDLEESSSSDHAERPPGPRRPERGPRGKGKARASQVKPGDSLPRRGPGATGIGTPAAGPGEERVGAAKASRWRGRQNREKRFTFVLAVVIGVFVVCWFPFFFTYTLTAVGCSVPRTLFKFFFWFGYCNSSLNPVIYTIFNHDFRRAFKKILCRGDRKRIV

[5] = target: Mu-type opioid receptor (Homo sapiens, UniProt P35372); assay: Inhibition of mu opioid receptor (unknown origin)
Mu-type opioid receptor, sequence (P35372 whole entry): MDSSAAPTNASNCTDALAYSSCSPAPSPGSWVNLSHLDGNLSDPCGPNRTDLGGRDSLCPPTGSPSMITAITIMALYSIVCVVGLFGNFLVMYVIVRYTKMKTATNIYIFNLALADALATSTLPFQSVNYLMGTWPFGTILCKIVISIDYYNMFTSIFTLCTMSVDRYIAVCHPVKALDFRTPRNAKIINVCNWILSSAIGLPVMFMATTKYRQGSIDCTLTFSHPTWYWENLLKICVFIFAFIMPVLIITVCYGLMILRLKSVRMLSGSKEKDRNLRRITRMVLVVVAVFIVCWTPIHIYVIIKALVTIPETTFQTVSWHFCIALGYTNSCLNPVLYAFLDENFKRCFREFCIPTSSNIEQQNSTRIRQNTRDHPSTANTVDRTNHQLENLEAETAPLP

[6] = target: Voltage-gated inwardly rectifying potassium channel KCNH2 (Homo sapiens, UniProt Q12809); assay: Inhibition of human ERG by dofetilide binding assay
Voltage-gated inwardly rectifying potassium channel KCNH2, sequence (Q12809 whole entry): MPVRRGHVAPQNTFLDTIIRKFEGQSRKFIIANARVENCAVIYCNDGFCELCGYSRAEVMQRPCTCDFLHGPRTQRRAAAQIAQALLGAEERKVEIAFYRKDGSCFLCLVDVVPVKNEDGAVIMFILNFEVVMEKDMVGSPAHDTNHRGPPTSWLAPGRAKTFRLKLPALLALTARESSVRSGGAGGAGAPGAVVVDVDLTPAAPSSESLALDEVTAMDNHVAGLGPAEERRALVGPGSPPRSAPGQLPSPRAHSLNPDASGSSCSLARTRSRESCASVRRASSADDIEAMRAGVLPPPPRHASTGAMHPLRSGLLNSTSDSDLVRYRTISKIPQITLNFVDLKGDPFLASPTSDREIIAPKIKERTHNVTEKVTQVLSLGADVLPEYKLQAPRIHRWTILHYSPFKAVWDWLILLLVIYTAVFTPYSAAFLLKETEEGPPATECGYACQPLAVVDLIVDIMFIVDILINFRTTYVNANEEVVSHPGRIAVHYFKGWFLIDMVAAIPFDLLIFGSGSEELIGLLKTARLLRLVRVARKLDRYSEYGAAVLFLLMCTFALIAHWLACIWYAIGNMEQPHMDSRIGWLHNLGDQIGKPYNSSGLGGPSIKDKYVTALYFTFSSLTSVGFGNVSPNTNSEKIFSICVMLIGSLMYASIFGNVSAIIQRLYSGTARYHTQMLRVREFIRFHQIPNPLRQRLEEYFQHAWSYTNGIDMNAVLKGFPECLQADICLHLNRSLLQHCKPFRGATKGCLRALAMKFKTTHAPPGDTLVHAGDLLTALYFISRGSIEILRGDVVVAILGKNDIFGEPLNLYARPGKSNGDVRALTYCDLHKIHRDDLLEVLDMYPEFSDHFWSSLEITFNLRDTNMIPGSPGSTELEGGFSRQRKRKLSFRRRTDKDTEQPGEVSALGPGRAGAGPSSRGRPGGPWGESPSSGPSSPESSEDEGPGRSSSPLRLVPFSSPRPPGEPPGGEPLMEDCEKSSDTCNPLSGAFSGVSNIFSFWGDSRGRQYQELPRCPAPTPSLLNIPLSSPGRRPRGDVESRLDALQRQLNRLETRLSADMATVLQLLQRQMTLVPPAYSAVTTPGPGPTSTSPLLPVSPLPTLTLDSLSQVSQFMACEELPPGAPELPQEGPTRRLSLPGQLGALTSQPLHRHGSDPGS

[7] = target: Beta-secretase 1 (Homo sapiens, UniProt P56817); assay: Inhibition of BACE1 (unknown origin)
Beta-secretase 1, sequence (P56817 whole entry): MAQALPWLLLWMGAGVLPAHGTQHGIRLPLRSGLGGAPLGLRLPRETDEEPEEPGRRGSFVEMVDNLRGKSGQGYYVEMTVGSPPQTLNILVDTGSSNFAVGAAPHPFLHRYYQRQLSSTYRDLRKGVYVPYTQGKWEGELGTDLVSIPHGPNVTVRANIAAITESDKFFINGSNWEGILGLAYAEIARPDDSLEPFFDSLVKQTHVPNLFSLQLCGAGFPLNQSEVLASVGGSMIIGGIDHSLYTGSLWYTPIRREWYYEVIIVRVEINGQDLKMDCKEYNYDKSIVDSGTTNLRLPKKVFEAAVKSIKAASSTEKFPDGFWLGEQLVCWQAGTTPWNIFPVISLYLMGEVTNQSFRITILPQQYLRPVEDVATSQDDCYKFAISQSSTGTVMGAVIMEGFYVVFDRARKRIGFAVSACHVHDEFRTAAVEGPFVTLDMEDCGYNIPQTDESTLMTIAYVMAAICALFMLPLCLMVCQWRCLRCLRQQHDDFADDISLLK

[8] = test system: Rattus norvegicus; assay: Oral bioavailability in cannulated fed Sprague-Dawley rat at 6 mg/kg; assay type: ADME, organism-based; conditions: in vivo
[9] = test system: Rattus norvegicus; assay: Plasma clearance in cannulated fed Sprague-Dawley rat at 2 mg/kg, iv; assay type: ADME, organism-based; design: dose 2 mg/kg, route intravenous; conditions: in vivo
[10] = target: T3, Renin (Homo sapiens, UniProt P00797); assay: Inhibition of human recombinant renin in presence of plasma by TR-FRET assay
T3 sequence (P00797 whole entry): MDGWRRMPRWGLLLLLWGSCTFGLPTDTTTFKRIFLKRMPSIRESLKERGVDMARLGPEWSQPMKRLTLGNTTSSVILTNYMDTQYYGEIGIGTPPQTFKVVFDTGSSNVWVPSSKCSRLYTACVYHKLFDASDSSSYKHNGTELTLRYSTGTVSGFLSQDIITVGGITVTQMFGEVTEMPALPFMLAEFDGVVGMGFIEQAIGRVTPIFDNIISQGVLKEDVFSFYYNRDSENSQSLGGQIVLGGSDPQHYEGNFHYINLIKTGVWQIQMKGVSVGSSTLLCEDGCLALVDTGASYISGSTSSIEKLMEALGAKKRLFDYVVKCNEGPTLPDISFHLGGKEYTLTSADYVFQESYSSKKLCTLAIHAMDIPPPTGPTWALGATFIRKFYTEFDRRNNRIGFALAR

[11] = test system: Rattus norvegicus; assay: Reduction in mean arterial blood pressure in hypertensive telemetered double-transgenic rat overexpressing human renin and angiotensinogen at 30 mg/kg, po; assay type: functional
[12] = target: Cytochrome P450 2C9 (Homo sapiens, UniProt P11712); assay: Inhibition of CYP2C9 (unknown origin); assay type: ADME
Cytochrome P450 2C9, sequence (P11712 whole entry): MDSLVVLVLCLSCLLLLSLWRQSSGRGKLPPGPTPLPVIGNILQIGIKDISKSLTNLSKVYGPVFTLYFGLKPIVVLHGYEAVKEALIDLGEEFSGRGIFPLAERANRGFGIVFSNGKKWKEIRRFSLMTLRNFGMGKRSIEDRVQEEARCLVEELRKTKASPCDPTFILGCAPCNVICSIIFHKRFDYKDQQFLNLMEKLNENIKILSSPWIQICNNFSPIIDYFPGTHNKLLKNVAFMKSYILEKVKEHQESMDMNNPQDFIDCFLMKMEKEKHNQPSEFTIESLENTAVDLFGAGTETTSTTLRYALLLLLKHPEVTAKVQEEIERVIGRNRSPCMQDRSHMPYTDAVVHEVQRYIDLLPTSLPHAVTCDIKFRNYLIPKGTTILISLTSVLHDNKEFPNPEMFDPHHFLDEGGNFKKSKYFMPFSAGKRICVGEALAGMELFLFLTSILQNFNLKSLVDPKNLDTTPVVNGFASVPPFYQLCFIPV

[13] = Solubility in aqueous buffer at pH 6.8; assay type: physicochemical
[14] = Cmax in cannulated fed Sprague-Dawley rat at 6 mg/kg, po; assay type: ADME, organism-based; design: dose 6 mg/kg, route oral; conditions: in vivo
[15] = target: T4, Alpha-1A adrenergic receptor (Homo sapiens, UniProt P35348); assay: Inhibition of alpha-adrenoceptor 1A (unknown origin)
T4 sequence (P35348 whole entry): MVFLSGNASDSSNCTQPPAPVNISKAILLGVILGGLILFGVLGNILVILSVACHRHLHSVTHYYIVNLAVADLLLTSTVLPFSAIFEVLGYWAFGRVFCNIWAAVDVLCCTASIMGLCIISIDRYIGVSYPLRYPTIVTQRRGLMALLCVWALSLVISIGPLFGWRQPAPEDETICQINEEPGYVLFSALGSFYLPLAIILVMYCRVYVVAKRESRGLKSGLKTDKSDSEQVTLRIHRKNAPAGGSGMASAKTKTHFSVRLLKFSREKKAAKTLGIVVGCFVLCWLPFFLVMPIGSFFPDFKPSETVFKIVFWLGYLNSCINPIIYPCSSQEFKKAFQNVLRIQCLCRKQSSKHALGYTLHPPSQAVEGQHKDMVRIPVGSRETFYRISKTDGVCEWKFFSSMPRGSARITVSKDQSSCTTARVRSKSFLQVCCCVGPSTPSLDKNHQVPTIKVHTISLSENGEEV

[16] = target: T5, Beta-secretase 2 (Homo sapiens, UniProt Q9Y5Z0); assay: Inhibition of BACE2 (unknown origin)
T5 sequence (Q9Y5Z0 whole entry): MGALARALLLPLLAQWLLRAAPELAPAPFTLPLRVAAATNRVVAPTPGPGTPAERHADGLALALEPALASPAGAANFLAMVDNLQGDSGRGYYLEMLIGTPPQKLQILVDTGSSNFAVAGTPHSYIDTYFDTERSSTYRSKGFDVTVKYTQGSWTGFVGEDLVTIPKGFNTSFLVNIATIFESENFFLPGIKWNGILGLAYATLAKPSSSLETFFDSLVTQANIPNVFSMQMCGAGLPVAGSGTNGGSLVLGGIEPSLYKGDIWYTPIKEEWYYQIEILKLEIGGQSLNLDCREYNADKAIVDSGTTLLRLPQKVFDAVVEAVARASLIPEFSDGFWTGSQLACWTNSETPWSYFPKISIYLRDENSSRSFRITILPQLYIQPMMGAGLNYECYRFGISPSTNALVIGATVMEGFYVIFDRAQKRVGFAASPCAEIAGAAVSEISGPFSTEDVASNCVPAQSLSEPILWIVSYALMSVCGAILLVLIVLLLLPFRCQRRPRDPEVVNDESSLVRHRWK

COCCCOc1cc(C(=O)N(C[C@@H]2CNC[C@H]2OC(=O)NCc2ccccc2)C(C)C)ccc1OC
IC50 [1]: 1 µM | IC50 [2]: 1 µM | IC50 [3]: 4 µM | IC50 [4]: 1 µM | IC50 [5]: 1 µM | IC50 [6]: 13 µM | IC50 [7]: > 30 µM | F [8]: 57% | CL [9]: 41.7 mL/min/kg | IC50 [10]: 0.03 µM | Activity [11]: 62 mmHg | IC50 [12]: > 20 µM | solubility [13]: > 1000 µM | Cmax [14]: 1020 nM | IC50 [15]: 0.5 µM | IC50 [16]: > 30 µM
